Experimental data reported in US10759839B2, “Cell-penetrating peptide” (NEOREGEN BIOTECH, priority 2016, dated 2020).
“Also recorded” adds a separate entry of the source. Where no end group is shown, it is not given here.

Columns and labels:
U2OS cancer cell line = test: Anti-cancer effect of purified ICT-53 peptide (FIGS. 9 and 10); assay type: cell-based; conditions: for each concentration
NIH3T3 cell line = test: Cell penetration efficiency of FITC-labelled p53C, Tat-Ara-19 and ICT-53 (FIG. 7); assay type: cell-based; conditions: 1 μM, 1 hour
Method: FIG. 7 is a graph showing results of comparing the cell penetration efficiencies of p53C, Tat-ara-19 and ICT-53 peptides.
A p53C peptide having 22 amino acid sequences and Tat-Ara-19 peptide, as well as the ICT-53 peptide, in which the p53C peptide is fused to the Tat-Ara-19 peptide, were synthesized, then fluorescein isothiocyanate (FITC, fluorescent material) was adhered to the C-terminus thereof so as to fluoresce. These peptides were used to examine the cell penetration efficiency for 1 hour at a concentration of 1 μM in a NIH3T3 cell line. […] In this experiment, the penetration efficiency in a situation including serum was also examined.

human-derived MSCs = test: Fluorescence microscopy of peptide entry into cells (FIG. 2); assay type: cell-based; conditions: 1 μM, 30 minutes, medium containing 10% serum, heparin washing, trypsin
Method: An experiment was conducted in a medium containing 10% serum, and after treatment for 30 minutes at a concentration of 1 μM, fluorescent peptides adhered to the cell surface were removed using a heparin washing method, and then the cell was separated therefrom by treatment with trypsin. FIG. 2 is photographs of cells taken by the fluorescence microscope after separation.

[1] = system: mesenchymal stem cell (MSC); test: Cell penetration of FITC-labelled peptide by concentration, FACS fluorescence intensity (FIG. 1); assay type: cell-based, human; conditions: 1 hour
From the text: FIG. 1 is a graph showing that a cell membrane penetration efficiency of Ara-27 cell-penetrating peptide is increased in proportion to a concentration in mesenchymal stem cell (MSC) derived from a human body. In the graph, a Y axis represents a fluorescence intensity, which is an index indicating an amount of introduced peptides per unit cell.
(§1) In order to confirm the cell penetration efficiency of each cell-penetrating peptide, fluorescein isothiocyanate (FITC, fluorescent material), which fluoresces each peptide, was adhered to each peptide, then penetration efficiencies thereof were examined.
When measuring the cell penetration efficiency, in order to remove each cell-penetrating peptide which may be adhered to the cell membrane surface, a Heparin & Trypsin washing method used in the Kaplan group was applied thereto [Kaplan I M, Wadia J S, Dowdy S F (2005) Cationic TAT peptide transduction domain enters cells by macropinocytosis. J Controlled release 102: 247-253). […]
In the mesenchymal stem cell (MSC), an amount of the cell-penetrating peptide (Ara-27) including an amino acid sequence of SEQ ID NO: 2 into the cell was determined for each concentration.

NIH3T3 fibroblast = test: Cell penetration efficiency of FITC-peptides, heparin and trypsin washing, FACS (FIG. 6); assay type: cell-based; conditions: 1 μM
From the text: FIG. 6 is a graph showing results of comparing the cell penetration efficiencies of Ara-27, ara-20, R8-Ara-19 and Ara-8 cell-penetrating peptides in a NIH3T3 fibroblast.
as §1
When measuring the cell penetration efficiency, in order to remove each cell-penetrating peptide which may be adhered to the cell membrane surface, a Heparin & Trypsin washing method used in the Kaplan group was applied thereto [Kaplan I M, Wadia J S, Dowdy S F (2005) Cationic TAT peptide transduction domain enters cells by macropinocytosis. J Controlled release 102: 247-253). In summary, in the experiments to be described below, each cell-penetrating peptide was put into a cell growth medium at a concentration of 1 μM, incubated for 30 minutes, and then the cells were washed 3 times with Heparin, followed by separating the cells with trypsin to perform a FACS analysis.
Next, the cell penetration efficiencies of Ara-27 and the cell-penetrating peptides including amino acid sequences of SEQ ID NO: 1 (Ara-20), SEQ ID NO: 3 (R8-Ara-19), and SEQ ID NO: 11 (Ara-8) of the examples in a NIH3T3 fibroblast were compared.

[2] = system: Human mesenchymal stem cells (human MSCs); test: Confocal microscopy of intracellular localisation with membrane marker FM-64 (FIG. 3); assay type: cell-based
From the text: Further, in order to determine whether the Ara-27 cell-penetrating peptide is actually present in intracellular nuclei or cytoplasm, the Ara-27 peptide was fluorescently treated, and then analyzed using a confocal microscope. Human mesenchymal stem cells (human MSCs) were placed in a DMEM cell culture medium containing 10% FBS in a 6-well plate. […] Next, a membrane marker (FM-64) was used to examine whether the peptides are actually present inside the cell membrane. The cells were removed with trypsin to allow reagents to be inserted into the cell membrane, and the reagents were treated to perform the analysis. At this time, it can be confirmed that most of peptides were present in cytoplasmic parts inside the cell membranes, and some of the peptides were also present in the nucleus (FIG. 3).

In the case of “RKKRRQRRCFRCRQAGHWISDCRLKSKGSRAHSSHLKSKKGQSTSRHKK (cysteines drawn unpaired) [ICT-53]”, the “anti-cancer effect, dependence on concentration” value (U2OS cancer cell line) is reported as “in proportion to the concentration” and the “cell penetration efficiency (in words)” value (NIH3T3 cell line) is reported as “high efficiency”.
With “Tat-PTD: Tat-PTD (SEQ ID NO: 12), a well-known cell-penetrating peptide, used as control group (RKKRRQRR; Tat-PTD) [reference compound]” the “peptides that entered the cells, seen by fluorescence microscope” value (human-derived MSCs) was “very rarely found”, the “amount of the peptide introduced per unit cell (fluorescence intensity)” value ([1]; even at 5 μM) was “remarkably low” and the “cell penetration efficiency (in words)” value (NIH3T3 fibroblast; NIH3T3 fibroblast, 30 minutes) was “very low level”.
With “Tat-Ara-19: cell-penetrating peptide including an amino acid sequence of SEQ ID NO: 4 (RKKRRQRRCFRCRQAGHWISDCRLKSK; Tat-Ara-19)” the “cell penetration efficiency (in words)” value (NIH3T3 cell line) was “high efficiency”.
“p53C: p53C peptide (SEQ ID NO: 5), peptide of a C-terminal region of a p53 protein, 22 amino acids (GSRAHSSHLKSKKGQSTSRHKK; p53C) [reference compound]” was tested, and the “cell penetration efficiency (in words)” value (NIH3T3 cell line) was “did not penetrate into the cell”.
For “Ara-27: cell-penetrating peptide including an amino acid sequence of SEQ ID NO: 2, Arabidopsis thaliana-derived (RNQRKTVRCFRCRQAGHWISDCRLKSK; Ara-27)”, the “peptides that entered the cells, seen by fluorescence microscope” value (human-derived MSCs) was “found across all the cells; also recorded: high fluorescence intensity”, the “amount of the peptide introduced per unit cell (fluorescence intensity)” value ([1]; for each concentration) was “increased in proportion to the concentration” and the “efficiency of penetrance into the cell” value (NIH3T3 fibroblast; within 30 minutes, environment including serum) was no less than 90%. For the same substance, the “location of the peptide in the cell” value ([2]; 2 μM, DMEM containing 10% FBS) was “most of the Ara-27 peptides were present in the cytoplasm”, the “persistence of the peptide in the cell” value ([2]; 5 μM, 18 hours after penetration) was “stably exist therein” and the “location of the peptide in the cell” value ([2]; 5 μM, 18 hours after penetration, membrane marker) was “not only in the cytoplasm but also in the nucleus”.
